From US20240319167A1, “CELL INFORMATION ACQUISITION METHOD, AND PROGRAM” (CANON KABUSHIKI KAISHA, priority 2023, published 2024)

Columns and labels:
[1] = system: NCI-H322 cells; assay: Autofluorescence luminance ratio (G component/B component) after adding metabolism changing reagent; format: cell-based, human; details: antimycin A 1 μM where added, incubated an hour after D-glucose removal, FIG. 3
Method: (§1) Human lung cancer cells NCI-H322 (KAC Co., Ltd.) were cultured in a culture medium 103 for cell culture (KAC Co., Ltd.). Human lung cancer cells COR-L23 (KAC Co., Ltd.) were cultured in a culture medium 103 for cell culture (KAC Co., Ltd.). A cell culture vessel was a 35 mm glass bottom dish (IWAKI) for any case. […] The area of a nucleus region was acquired and labelled. […] Average value of G component/Average value of B component was calculated cell by cell and plotted as a box-and-whisker plot (FIG. 3). […] NCI-H322 cells were cultured in a 35 mm glass bottom dish, and COR-L23 cells were cultured in a 35 mm glass bottom dish. […] As negative control, only removal of D-glucose was performed for both NCI-H322 cells and COR-L23 cells to create samples not added with a metabolism changing reagent. An autofluorescence image of each of the samples was captured. Subsequently, nuclear staining and mitochondria staining were performed to stain nuclei and mitochondria, and similarly stained images were captured with an image capturing apparatus.

[2] = system: COR-L23 cells; assay: as above; format: cell-based, human; details: antimycin A 1 μM where added, incubated an hour after D-glucose removal, FIG. 3
Method: as §1

O=C[C@H](O)[C@@H](O)[C@H](O)[C@H](O)CO [D-glucose]
G component/B component of autofluorescence (365 nm excitation/430 nm long pass filter) versus negative control [1]: no significant difference
G component/B component of autofluorescence (365 nm excitation/430 nm long pass filter) versus negative control [2]: no significant difference
